In article PMC9007972, “Structural and biochemical evidence that ATP inhibits the cancer biomarker human aldehyde dehydrogenase 1A3” (Communications Biology, 2022):
Each block holds one compound with its values, some of them ahead of it.

Experiments:
ALDH1A3 [1] = target: T1, ALDH1A3 (Homo sapiens, UniProt P47895); assay: dehydrogenase activity with hexanal, […] ADP (remaining activity); type: biochemical; parameters: His6-tagged, pET-30 Xa/LIC; details: read-out: % remaining activity at 0.5 mM
T1 sequence (P47895 2-512): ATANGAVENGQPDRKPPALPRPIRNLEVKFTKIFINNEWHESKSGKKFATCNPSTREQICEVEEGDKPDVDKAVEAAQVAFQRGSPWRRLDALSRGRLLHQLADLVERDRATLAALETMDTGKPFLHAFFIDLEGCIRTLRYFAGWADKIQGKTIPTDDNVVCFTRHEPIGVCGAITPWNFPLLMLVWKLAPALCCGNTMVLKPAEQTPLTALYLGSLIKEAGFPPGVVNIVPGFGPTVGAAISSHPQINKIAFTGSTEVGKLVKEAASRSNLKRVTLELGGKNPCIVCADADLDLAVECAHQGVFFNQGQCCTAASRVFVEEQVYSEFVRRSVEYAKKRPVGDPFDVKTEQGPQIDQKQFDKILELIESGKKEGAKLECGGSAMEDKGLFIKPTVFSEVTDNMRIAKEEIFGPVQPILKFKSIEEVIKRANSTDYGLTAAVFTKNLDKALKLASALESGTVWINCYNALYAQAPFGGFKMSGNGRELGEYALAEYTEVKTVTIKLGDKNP

ALDH1A1 = target: T2, ALDH1A1 (Homo sapiens, UniProt P00352); assay: fluorimetric dehydrogenase assay with hexanal, […] ATP; type: biochemical; details: read-out: % remaining activity at 2 mM
T2 construct: His6-tagged, pET-30 Xa/LIC
T2 sequence (P00352 2-501): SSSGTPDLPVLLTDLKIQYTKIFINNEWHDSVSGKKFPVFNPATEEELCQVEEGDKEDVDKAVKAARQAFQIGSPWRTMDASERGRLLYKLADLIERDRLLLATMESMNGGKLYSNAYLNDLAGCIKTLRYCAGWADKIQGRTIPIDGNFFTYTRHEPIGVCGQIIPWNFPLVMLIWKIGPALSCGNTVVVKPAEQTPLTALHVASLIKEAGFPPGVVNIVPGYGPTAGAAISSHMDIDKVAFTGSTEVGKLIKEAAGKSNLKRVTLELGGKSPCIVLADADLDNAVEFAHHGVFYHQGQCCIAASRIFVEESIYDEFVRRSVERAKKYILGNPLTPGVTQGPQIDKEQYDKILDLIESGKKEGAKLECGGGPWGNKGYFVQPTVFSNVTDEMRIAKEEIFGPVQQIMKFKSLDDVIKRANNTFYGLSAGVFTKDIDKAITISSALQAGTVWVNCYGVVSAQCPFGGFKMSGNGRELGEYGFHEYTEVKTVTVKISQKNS

ALDH1A3 [2] = target: T1, ALDH1A3; assay: biochemical
ALDH3A1 = target: T3, ALDH3A1 (Homo sapiens, UniProt P30838); assay: fluorimetric dehydrogenase assay with hexanal, […] ATP; type: biochemical; details: read-out: % remaining activity at 2 mM
T3 construct: His6-tagged, pET-30 Xa/LIC
T3 sequence (P30838 2-453): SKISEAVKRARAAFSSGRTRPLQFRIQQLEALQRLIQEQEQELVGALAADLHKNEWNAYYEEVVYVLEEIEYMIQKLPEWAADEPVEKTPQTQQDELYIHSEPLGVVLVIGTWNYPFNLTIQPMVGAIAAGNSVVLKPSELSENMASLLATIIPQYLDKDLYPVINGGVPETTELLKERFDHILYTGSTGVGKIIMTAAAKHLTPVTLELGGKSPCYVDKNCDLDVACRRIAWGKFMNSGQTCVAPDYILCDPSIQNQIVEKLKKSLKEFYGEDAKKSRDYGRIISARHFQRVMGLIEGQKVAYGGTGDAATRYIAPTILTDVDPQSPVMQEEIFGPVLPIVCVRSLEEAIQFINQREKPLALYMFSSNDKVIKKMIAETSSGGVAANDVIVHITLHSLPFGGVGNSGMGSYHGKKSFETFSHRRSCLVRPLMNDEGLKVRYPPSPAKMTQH

ALDH1A2 = target: T4, ALDH1A2 (Homo sapiens, UniProt O94788); assay: as above; type: biochemical; details: read-out: % remaining activity at 2 mM
T4 construct: His6-tagged, pET-30 Xa/LIC
T4 sequence (O94788 1-518): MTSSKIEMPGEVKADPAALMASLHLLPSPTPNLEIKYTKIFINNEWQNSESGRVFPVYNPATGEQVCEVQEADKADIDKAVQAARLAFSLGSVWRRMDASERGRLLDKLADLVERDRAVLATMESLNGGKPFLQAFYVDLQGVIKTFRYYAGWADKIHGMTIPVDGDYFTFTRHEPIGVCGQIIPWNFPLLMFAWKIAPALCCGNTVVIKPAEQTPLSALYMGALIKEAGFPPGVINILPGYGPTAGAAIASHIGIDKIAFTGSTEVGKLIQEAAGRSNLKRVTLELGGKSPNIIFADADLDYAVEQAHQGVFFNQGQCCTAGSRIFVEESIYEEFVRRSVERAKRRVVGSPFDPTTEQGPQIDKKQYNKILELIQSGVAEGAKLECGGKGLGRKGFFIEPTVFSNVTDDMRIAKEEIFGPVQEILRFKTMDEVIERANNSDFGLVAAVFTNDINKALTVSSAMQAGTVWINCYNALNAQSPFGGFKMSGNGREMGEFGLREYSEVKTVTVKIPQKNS

ALDH1A3 [3] = target: T1, ALDH1A3; assay: X-ray crystal structure ([…] Å); Km from enzyme kinetics without Mg2+; type: biochemical; parameters: His6-tagged, pET-30 Xa/LIC

remaining activity at 500 µM (ALDH1A3 [1]): 56 ± 4%
SMILES: Nc1ncnc2c1ncn2[C@@H]1O[C@H](COP(=O)(O)OP(=O)(O)O)[C@@H](O)[C@H]1O [ADP]

SMILES: Nc1ncnc2c1ncn2[C@@H]1O[C@H](CO[P@@](=O)(O)O[P@](=O)(O)OP(=O)(O)O)[C@@H](O)[C@H]1O [ATP]
remaining activity at 2000 µM (ALDH1A1): 43 ± 1% | Ki (ALDH1A3 [2]): 480 ± 80 µM | remaining activity at 2000 µM (ALDH3A1): 25 ± 1% | remaining activity at 2000 µM (ALDH1A2): 68 ± 2%

Km (ALDH1A3 [3]): 24 ± 2 µM
SMILES: NC(=O)c1ccc[n+]([C@@H]2O[C@H](COP(=O)([O-])OP(=O)(O)OC[C@H]3O[C@@H](n4cnc5c(N)ncnc54)[C@H](O)[C@@H]3O)[C@@H](O)[C@H]2O)c1 [NAD^+]
